From US10252997B2, “Monocyclic compound” (Takeda Pharmaceutical Company Limited, priority 2015, dated 2019)

Columns and labels:
[1] = Anti-fatty liver effect (triglyceride amount in liver); type: in vivo; details: homo low-density lipoprotein receptor deficient mouse, choline-deficient amino acid diet, oral once per day for three weeks
Excerpt: As representative examples of anti-fatty liver effect, the action on fatty liver caused by non-alcoholic steatohepatitis was verified by the following method.
(§1) For efficacy evaluation of action on the above-mentioned fibrosis, 9-week-old, male, homo low-density lipoprotein receptor deficient mouse (Jackson Laboratories (Bar Harbor Me., USA)) was used. Specifically, a choline-deficient amino acid diet (A08111307, Research Diets, New Brunswick, N.J., USA) was fed to the above-mentioned mouse for one week, and a drug was administered for three weeks, and then the triglyceride amount in liver after the drug administration was measured.
(§2) For the above-mentioned drug administration group, the test compound suspended in 0.5% methylcellulose solution was orally administered by gavage using a stomach gavage needle once per day (n=8). […]
The measurement of the triglyceride amount in liver was performed by the following method. […] The total weight of the isolated liver was measured, and a part of the liver was immediately cryopreserved using dry ice. […] The dried substance was dissolved in 2-propanol, and the triglyceride concentration in the solution was measured by autoanalyzer (Hitachi 7180 type). The total triglyceride amount in the liver (mg/liver) was calculated from the weight of the liver used for the measurement and the total liver weight. […]

[2] = tested on: collagen I gene expression level in liver; assay: Inhibitory effect on liver fibrosis caused by NASH (collagen I gene expression level in liver); type: in vivo; details: homo low-density lipoprotein receptor deficient mouse, choline-deficient amino acid diet, oral once per day for three weeks
Description: The action on liver fibrosis caused by non-alcoholic steatohepatitis (NASH) was verified by the following method.
as §1, with “collagen I gene expression level” for “triglyceride amount”
as §2
The measurement of the collagen I gene expression level in liver was performed by the following method. […] The total RNA was purified using RNeasy Mini Kit (Qiagen, Valencia, Calif., USA), and cDNA was prepared using High Capacity cDNA Reverse Transcription Kit (PN4368814, Applied Biosystems, Foster City, Calif., USA), and the collagen I gene expression level was measured (collagen type I alpha 1, Part Number 4351370, Applied Biosystems) by the quantitative PCR method (TaqMan Gene Expression Master Mix, PN4369016, Applied Biosystems). […]

## C[C@@H](COc1cnc(-c2ccc(Oc3cccc(OCC4CC4)c3)cc2)o1)NC(N)=O [Example 82, 1-((2S)-1-((2-(4-(3-(cyclopropylmethoxy)phenoxy)phenyl)-1,3-oxazol-5-yl)oxy)propan-2-yl)urea]
[1]
  inhibitory effect on fatty liver caused by non-alcoholic steatohepatitis (triglyceride amount in liver, FIG. 2): superior inhibitory effect on fatty liver caused by non-alcoholic steatohepatitis
[2]
  inhibitory effect on liver fibrosis caused by non-alcoholic steatohepatitis (collagen I gene expression level in liver, FIG. 1): superior inhibitory effect on liver fibrosis caused by non-alcoholic steatohepatitis
